Assay results from US20240376091A1, “THIADIAZOLEAMIDE DERIVATIVES AND THEIR APPLICATIONS” (ZHEJIANG UNIVERSITY, priority 2021, published 2024).
pIC50: −log10 of the molar value.

Molecular target: T1, AR (Homo sapiens, UniProt P10275, T878A)
T1 construct: into the androgen-dependent PCa cells (LNCaP); endogenous in cells; host or cells: LNCaP-ARR2PB-eGFP
T1 sequence (P10275 1-920 T878A): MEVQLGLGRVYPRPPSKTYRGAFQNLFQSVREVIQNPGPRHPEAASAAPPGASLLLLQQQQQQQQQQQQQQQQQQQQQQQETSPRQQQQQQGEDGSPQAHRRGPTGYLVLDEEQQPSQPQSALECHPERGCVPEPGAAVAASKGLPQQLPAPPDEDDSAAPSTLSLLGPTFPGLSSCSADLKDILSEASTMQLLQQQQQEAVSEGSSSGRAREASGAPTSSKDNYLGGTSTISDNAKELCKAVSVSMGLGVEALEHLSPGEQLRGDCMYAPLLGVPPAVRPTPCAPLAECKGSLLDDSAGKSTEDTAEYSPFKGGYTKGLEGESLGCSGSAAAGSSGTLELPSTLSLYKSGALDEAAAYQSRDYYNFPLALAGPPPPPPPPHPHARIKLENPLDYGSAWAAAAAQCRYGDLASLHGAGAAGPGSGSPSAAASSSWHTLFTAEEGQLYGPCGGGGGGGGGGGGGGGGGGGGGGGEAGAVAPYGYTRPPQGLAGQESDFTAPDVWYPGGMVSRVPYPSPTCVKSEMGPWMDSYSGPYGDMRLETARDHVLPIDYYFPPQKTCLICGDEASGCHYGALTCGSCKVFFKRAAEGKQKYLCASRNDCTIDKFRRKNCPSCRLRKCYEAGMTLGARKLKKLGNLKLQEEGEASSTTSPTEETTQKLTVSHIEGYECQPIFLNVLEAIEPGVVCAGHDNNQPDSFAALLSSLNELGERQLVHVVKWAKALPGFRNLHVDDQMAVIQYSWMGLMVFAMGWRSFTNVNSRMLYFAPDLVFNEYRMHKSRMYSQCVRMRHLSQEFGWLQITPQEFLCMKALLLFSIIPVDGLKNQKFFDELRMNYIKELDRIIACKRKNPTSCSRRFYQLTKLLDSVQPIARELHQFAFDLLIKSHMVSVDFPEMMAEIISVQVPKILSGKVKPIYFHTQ
Test: AR transcriptional activity, LNCaP-ARR2PB-eGFP reporter cells
Assay type: cell-based
Details: read-out: IC50 AR transcriptional activities
Text: Detection principles: We conducted a stable transfection of promoter ARR2PB known for its strong AR responsiveness, into the androgen-dependent PCa cells (LNCaP). The expression of enhanced green fluorescent protein (eGFP) is depending on the degree of activation of AR. Therefore, LNCaP-ARR2PB-eGFP cell line could quantitatively determine the AR antagonistic activities of the compounds by evaluating the expression of eGFP.

SMILES	pIC50
Cc1sc(-c2cccc(C(F)(F)F)c2)cc1C(=O)Nc1nc(CC(C)(O)C(F)(F)F)ns1 (centres unmarked) [Compound C-25, 2-Methyl-N-(3-(3,3,3-trifluoro-2-hydroxy-2-methylpropyl)-1,2,4-thiadiazol-5-yl)-5-(3-(trifluoromethyl)phenyl)thiophene-3-carboxamide]	5.60
CC(=O)Cc1nsc(NC(=O)c2cc(-c3cccc(OC(F)F)c3)oc2C(F)(F)F)n1 [Compound E-5, 5-(3-(Difluoromethoxy)phenyl)-N-(3-(2-oxopropyl)-1,2,4-thiadiazol-5-yl)-2-(trifluoro-methyl)furan-3-carboxamide]	5.83
CCOc1cccc(-c2cc(C(=O)Nc3nc(CC(C)=O)ns3)c(C)o2)c1 [Compound A-6, 5-(3-Ethoxyphenyl)-2-methyl-N-(3-(2-oxopropyl)-1,2,4-thiadiazol-5-yl)furan-3-carboxamide]	6.89
CCN(CC)C(C)Cc1nsc(NC(=O)c2csc(-c3cccc(C(F)(F)F)c3)c2)n1 [Compound D-7, N-(3-(2-(diethylamino)propyl)-1,2,4-thiadiazol-5-yl)-5-(3-(trifluoromethyl)phenyl)thiophene-3-carboxamide]	4.64
Cc1oc(-c2cccc(OC(F)F)c2)cc1C(=O)Nc1nc(CN2CCCCC2)ns1 [Compound A-129, 5-(3-(Difluoromethoxy)phenyl)-2-methyl-N-(3-(piperidin-1-ylmethyl)-1,2,4-thiadiazol-5-yl)furan-3-carboxamide]	7.22
CC(Cc1nsc(NC(=O)c2csc(-c3cccc(OC(F)(F)F)c3)c2)n1)N1CCOCC1 [Compound D-16, N-(3-(2-morpholinopropyl)-1,2,4-thiadiazol-5-yl)-5-(3-(trifluoromethoxy)phenyl)thiophene-3-carboxamide]	4.62
CC(=O)Cc1nsc(NC(=O)c2cc(-c3cccc(Cl)c3)oc2C)n1 [Compound A-8, 5-(3-Chlorophenyl)-2-methyl-N-(3-(2-oxopropyl)-1,2,4-thiadiazol-5-yl)furan-3-carboxamide]	5.77
COc1cccc(-c2cc(C(=O)Nc3nc(CC(C)N4CCCCC4)ns3)cs2)c1 [Compound D-14, 5-(3-Methoxyphenyl)-N-(3-(2-(piperidin-1-yl)propyl)-1,2,4-thiadiazol-5-yl)thiophene-3-carboxamide]	4.43
CC(Cc1nsc(NC(=O)c2coc(-c3cccc(OC(F)(F)F)c3)c2)n1)N1CCOCC1 (centres unmarked) [Compound B-16, N-(3-(2-morpholinopropyl)-1,2,4-thiadiazol-5-yl)-5-(3-(trifluoromethoxy)phenyl)furan-3-carboxamide]	4.45
Cc1oc(-c2cccc(C(F)(F)F)c2)cc1C(=O)Nc1nc(CN2CCCC2)ns1 [Compound A-108, 2-Methyl-N-(3-(pyrrolidin-1-ylmethyl)-1,2,4-thiadiazol-5-yl)-5-(3-(trifluoromethyl)phenyl)furan-3-carboxamide]	6.08
CC(=O)Cc1nsc(NC(=O)c2csc(-c3cccc(C(F)(F)F)c3)c2)n1 [Compound D-1, N-(3-(2-oxopropyl)-1,2,4-thiadiazol-5-yl)-5-(3-(trifluoromethyl)phenyl)thiophene-3-carboxamide]	4.60
Cc1oc(-c2cccc(C#N)c2)cc1C(=O)Nc1nc(CCl)ns1 [Compound A-112, N-(3-(chloromethyl)-1,2,4-thiadiazol-5-yl)-5-(3-cyanophenyl)-2-methylfuran-3-carboxamide]	5.73
CC(=O)Cc1nsc(NC(=O)c2cc(-c3cccc(O)c3)oc2C)n1 [Compound A-26, 5-(3-Hydroxyphenyl)-2-methyl-N-(3-(2-oxopropyl)-1,2,4-thiadiazol-5-yl)furan-3-carboxamide]	5.49
Cc1oc(-c2cccc(C(F)(F)F)c2)cc1C(=O)Nc1nc(CC(C)N2CCOCC2)ns1 (centres unmarked) [Compound A-42, 2-Methyl-N-(3-(2-morpholinopropyl)-1,2,4-thiadiazol-5-yl)-5-(3-(trifluoromethyl)phenyl) furan-3-carboxamide]	6.44
